pIC50, pKi: −log10 of the molar value. Calls of active or inactive are those of the source. The rule behind the calls is not given here.
Assays:
Cornu aspersum = experiment: Inhibition of snail beta-mannosidase at 0.1 mM using p-nitrophenyl glycopyranoside as substrate preincubated for 5 mins followed by substrate addition and measured after 20 mins by visible absorption spectroscopic analysis
Prunus dulcis = experiment: Inhibition of almond beta-glucosidase at 0.1 mM using p-nitrophenyl glycopyranoside as substrate preincubated for 5 mins followed by substrate addition and measured after 20 mins by visible absorption spectroscopic analysis
Beta-galactosidase [1] = biological target: T1, Beta-galactosidase (Bos taurus, UniProt Q58D55); experiment: Competitive inhibition of bovine liver beta-galactosidase using p-nitrophenyl glycopyranoside as substrate preincubated for 5 mins followed by substrate addition and measured after 20 mins by Lineweaver-Burk plot analysis
T1 sequence (Q58D55 whole entry): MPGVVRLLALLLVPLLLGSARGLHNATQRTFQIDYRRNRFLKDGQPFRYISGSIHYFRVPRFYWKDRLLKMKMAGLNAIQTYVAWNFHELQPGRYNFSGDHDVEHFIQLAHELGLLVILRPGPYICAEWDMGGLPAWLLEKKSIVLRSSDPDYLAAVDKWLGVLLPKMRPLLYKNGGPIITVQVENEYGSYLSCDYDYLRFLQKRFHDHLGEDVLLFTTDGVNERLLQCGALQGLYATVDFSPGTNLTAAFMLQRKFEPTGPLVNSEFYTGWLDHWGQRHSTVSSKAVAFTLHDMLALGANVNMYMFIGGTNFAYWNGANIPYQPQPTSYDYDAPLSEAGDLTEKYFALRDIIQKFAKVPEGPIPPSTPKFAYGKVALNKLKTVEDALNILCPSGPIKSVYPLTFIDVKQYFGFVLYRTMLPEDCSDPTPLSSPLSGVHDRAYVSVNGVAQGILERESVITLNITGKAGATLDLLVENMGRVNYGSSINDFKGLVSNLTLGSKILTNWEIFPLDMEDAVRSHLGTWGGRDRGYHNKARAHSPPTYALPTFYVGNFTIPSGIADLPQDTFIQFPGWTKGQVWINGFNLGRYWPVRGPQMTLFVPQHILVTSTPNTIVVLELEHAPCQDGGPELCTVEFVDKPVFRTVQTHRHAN

Oryza sativa = experiment: Inhibition of rice beta-glucosidase at 0.1 mM using p-nitrophenyl glycopyranoside as substrate preincubated for 5 mins followed by substrate addition and measured after 20 mins by visible absorption spectroscopic analysis
[2] = biological target: T2, Alpha-mannosidase (Canavalia ensiformis) (UniProt C0HJB3); experiment: Inhibition of jack beans alpha-mannosidase at 0.1 mM using p-nitrophenyl glycopyranoside as substrate preincubated for 5 mins followed by substrate addition and measured after 20 mins by visible absorption spectroscopic analysis
T2 sequence (whole entry): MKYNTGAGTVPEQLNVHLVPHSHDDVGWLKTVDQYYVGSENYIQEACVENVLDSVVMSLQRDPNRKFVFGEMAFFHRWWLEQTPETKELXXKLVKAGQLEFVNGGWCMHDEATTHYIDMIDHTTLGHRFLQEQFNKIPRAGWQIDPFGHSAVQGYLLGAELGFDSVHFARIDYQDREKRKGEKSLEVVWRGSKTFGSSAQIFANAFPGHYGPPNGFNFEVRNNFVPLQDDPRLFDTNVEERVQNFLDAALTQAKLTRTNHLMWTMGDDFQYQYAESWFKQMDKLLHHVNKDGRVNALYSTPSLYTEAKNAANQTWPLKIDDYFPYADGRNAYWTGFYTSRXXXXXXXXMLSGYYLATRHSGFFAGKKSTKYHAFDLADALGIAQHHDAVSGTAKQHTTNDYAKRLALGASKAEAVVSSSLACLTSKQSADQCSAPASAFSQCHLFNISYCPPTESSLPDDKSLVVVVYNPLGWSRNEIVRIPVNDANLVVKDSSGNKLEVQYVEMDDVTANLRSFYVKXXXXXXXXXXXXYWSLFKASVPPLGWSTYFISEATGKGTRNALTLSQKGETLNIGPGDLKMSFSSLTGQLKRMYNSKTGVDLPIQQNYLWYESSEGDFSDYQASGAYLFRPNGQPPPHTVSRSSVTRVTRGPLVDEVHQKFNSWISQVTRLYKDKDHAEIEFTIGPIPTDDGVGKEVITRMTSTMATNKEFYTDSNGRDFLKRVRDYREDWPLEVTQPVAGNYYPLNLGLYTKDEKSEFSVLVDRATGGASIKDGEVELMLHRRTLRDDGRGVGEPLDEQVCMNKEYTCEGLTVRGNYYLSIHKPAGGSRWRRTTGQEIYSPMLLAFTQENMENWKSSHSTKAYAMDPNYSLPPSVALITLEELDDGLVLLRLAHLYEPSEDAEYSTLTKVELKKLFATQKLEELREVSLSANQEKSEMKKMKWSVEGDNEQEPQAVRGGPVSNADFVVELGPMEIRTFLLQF

Canavalia ensiformis = experiment: Inhibition of jack beans beta-N-acetylglucosaminidase at 0.1 mM using p-nitrophenyl glycopyranoside as substrate preincubated for 5 mins followed by substrate addition and measured after 20 mins by visible absorption spectroscopic analysis
Saccharomyces cerevisiae = experiment: Inhibition of Saccharomyces cerevisiae alpha-glucosidase at 0.1 mM using p-nitrophenyl glycopyranoside as substrate preincubated for 5 mins followed by substrate addition and measured after 20 mins by visible absorption spectroscopic analysis
Bos taurus [3] = species on record: Bos taurus; experiment: Inhibition of bovine kidney alpha-fucosidase at 0.1 mM using p-nitrophenyl glycopyranoside as substrate preincubated for 5 mins followed by substrate addition and measured after 20 mins by visible absorption spectroscopic analysis relative to control
[4] = biological target: T3, Beta-galactosidase (Bos taurus) (UniProt Q58D55); experiment: Inhibition of bovine liver beta-galactosidase at 200 uM using p-nitrophenyl glycopyranoside as substrate preincubated for 5 mins followed by substrate addition and measured after 20 mins by visible absorption spectroscopic analysis relative to control
T3 sequence (whole entry): T1 sequence (Q58D55 whole entry)

Homo sapiens = species on record: Homo sapiens; experiment: Inhibition of human alpha-fucosidase at 0.1 mM using p-nitrophenyl glycopyranoside as substrate preincubated for 5 mins followed by substrate addition and measured after 20 mins by visible absorption spectroscopic analysis
Aspergillus niger = experiment: Inhibition of Aspergillus niger amyloglucosidase at 0.1 mM using p-nitrophenyl glycopyranoside as substrate preincubated for 5 mins followed by substrate addition and measured after 20 mins by visible absorption spectroscopic analysis
Beta-galactosidase [5] = biological target: T1, Beta-galactosidase; experiment: Inhibition of bovine liver beta-galactosidase using p-nitrophenyl glycopyranoside as substrate preincubated for 5 mins followed by substrate addition and measured after 20 mins by visible absorption spectroscopic analysis
[6] = biological target: Alpha-galactosidase (Coffea arabica) (UniProt Q42656); experiment: Inhibition of coffee beans alpha-galactosidase at 0.1 mM using p-nitrophenyl glycopyranoside as substrate preincubated for 5 mins followed by substrate addition and measured after 20 mins by visible absorption spectroscopic analysis
Alpha-galactosidase (Coffea arabica), sequence (Q42656 16-378 limits assumed): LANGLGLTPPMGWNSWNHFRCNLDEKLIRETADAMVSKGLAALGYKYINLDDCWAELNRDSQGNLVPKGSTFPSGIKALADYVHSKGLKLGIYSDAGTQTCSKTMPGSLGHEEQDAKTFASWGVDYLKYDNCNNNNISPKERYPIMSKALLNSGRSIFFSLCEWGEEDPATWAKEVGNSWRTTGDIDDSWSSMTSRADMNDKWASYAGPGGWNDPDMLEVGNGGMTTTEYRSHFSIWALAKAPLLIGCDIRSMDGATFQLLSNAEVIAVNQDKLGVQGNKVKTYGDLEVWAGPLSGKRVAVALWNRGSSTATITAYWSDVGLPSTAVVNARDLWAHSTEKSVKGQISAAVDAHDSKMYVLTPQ

[7] = Competitive inhibition of human alpha-fucosidase using p-nitrophenyl glycopyranoside as substrate preincubated for 5 mins followed by substrate addition and measured after 20 mins by Lineweaver-Burk plot analysis
[8] = Inhibition of bovine kidney alpha-fucosidase using p-nitrophenyl glycopyranoside as substrate preincubated for 5 mins followed by substrate addition and measured after 20 mins by visible absorption spectroscopic analysis; design: species or system Bos taurus
[9] = Uncompetitive inhibition of human alpha-fucosidase using p-nitrophenyl glycopyranoside as substrate preincubated for 5 mins followed by substrate addition and measured after 20 mins by Lineweaver-Burk plot analysis
[10] = Uncompetitive inhibition of bovine kidney alpha-fucosidase using p-nitrophenyl glycopyranoside as substrate preincubated for 5 mins followed by substrate addition and measured after 20 mins by Lineweaver-Burk plot analysis; design: species or system Bos taurus
[11] = Competitive inhibition of bovine kidney alpha-fucosidase using p-nitrophenyl glycopyranoside as substrate preincubated for 5 mins followed by substrate addition and measured after 20 mins by Lineweaver-Burk plot analysis; design: species or system Bos taurus
[12] = biological target: T3, Beta-galactosidase (Bos taurus); experiment: Inhibition of bovine liver beta-galactosidase at 0.1 mM using p-nitrophenyl glycopyranoside as substrate preincubated for 5 mins followed by substrate addition and measured after 20 mins by visible absorption spectroscopic analysis
[13] = Inhibition of human alpha-fucosidase using p-nitrophenyl glycopyranoside as substrate preincubated for 5 mins followed by substrate addition and measured after 20 mins by visible absorption spectroscopic analysis
Bos taurus [14] = species on record: Bos taurus; experiment: Inhibition of bovine kidney alpha-fucosidase at 0.120 uM using p-nitrophenyl glycopyranoside as substrate preincubated for 5 mins followed by substrate addition and measured after 20 mins by visible absorption spectroscopic analysis

In the case of `Cc1oc([C@H]2NC[C@@H](O)[C@H]2O)cc1C(=O)NCc1cn(CCCCCCCCCCCCn2cc(CNC(=O)c3cc([C@H]4NC[C@@H](O)[C@H]4O)oc3C)nn2)nn1`, the inhibition (Cornu aspersum) was “inactive”, the inhibition (Prunus dulcis) was “inactive” and the pKi (Beta-galactosidase [1]) was 5.24. The inhibition (Oryza sativa) was “inactive”, the inhibition [2] was “inactive” and the inhibition (Canavalia ensiformis) was “inactive”. For the same compound, the inhibition (Saccharomyces cerevisiae) was “inactive”, the inhibition (Bos taurus [3]) was 32% and the inhibition [4] was 88%. For the same compound, the inhibition (Homo sapiens) was “inactive”, the inhibition (Aspergillus niger) was “inactive” and the pIC50 (Beta-galactosidase [5]) was 5.02. The inhibition [6] was “inactive”.

In the case of `Cc1oc([C@H]2NC[C@@H](O)[C@H]2O)cc1C(=O)NCc1cn(CCOCCOCCOCCOCCOCCn2cc(CNC(=O)c3cc([C@H]4NC[C@@H](O)[C@H]4O)oc3C)nn2)nn1`, the inhibition [4] was under 50%.

In the case of `C[C@@H]1N[C@@H](c2c[nH]nn2)[C@H](O)[C@@H]1O`, the inhibition (Cornu aspersum) was “inactive”, the inhibition (Prunus dulcis) was “inactive” and the pKi [7] was 4.74. For the same compound, the inhibition (Oryza sativa) was “inactive”, the pIC50 [8] was 6.00 and the inhibition [2] was “inactive”. For the same compound, the pKi [9] was 4.47, the inhibition (Canavalia ensiformis) was “inactive” and the pKi [10] was 5.38. The inhibition (Saccharomyces cerevisiae) was “inactive”, the pKi [11] was 6.52 and the inhibition (Aspergillus niger) was “inactive”. For the same compound, the inhibition [12] was “inactive”, the inhibition [6] was “inactive” and the pIC50 [13] was 4.15.

With `C[C@@H]1N[C@@H](c2cn(CCCCCCCCCCCCn3cc([C@@H]4N[C@@H](C)[C@@H](O)[C@H]4O)nn3)nn2)[C@H](O)[C@@H]1O` the inhibition (Bos taurus [14]) was “Active”.

For `C[C@@H]1N[C@@H](c2cn(CCOCCOCCOCCn3cc([C@@H]4N[C@@H](C)[C@@H](O)[C@H]4O)nn3)nn2)[C@H](O)[C@@H]1O`, the inhibition (Cornu aspersum) was “inactive”, the inhibition (Prunus dulcis) was “inactive” and the pKi [7] was 5.32. For the same compound, the inhibition (Oryza sativa) was “inactive”, the pIC50 [8] was 6.92 and the inhibition [2] was “inactive”. For the same compound, the pKi [9] was 4.95, the inhibition (Canavalia ensiformis) was “inactive” and the pKi [10] was 6.88. For the same compound, the inhibition (Saccharomyces cerevisiae) was “inactive”, the pKi [11] was 7.37 and the inhibition (Aspergillus niger) was “inactive”. For the same compound, the inhibition [12] was “inactive”, the inhibition [6] was “inactive” and the pIC50 [13] was 4.59.

For `C#C[C@H]1[C@H](O)[C@H](O)[C@H](C)N1C(=O)OC(C)(C)C`, the pKi [10] was 9.00 and the pKi [11] was 9.70.

In the case of `C[C@@H]1N[C@@H](c2cn(CCOCCOCc3cn(CCCCCCCCCCCCn4cc(COCCOCCn5cc([C@@H]6N[C@@H](C)[C@@H](O)[C@H]6O)nn5)nn4)nn3)nn2)[C@H](O)[C@@H]1O`, the inhibition (Bos taurus [14]) was “Active”.

`Cc1oc([C@H]2NC[C@@H](O)[C@H]2O)cc1C(=O)NCc1cn(CCOCCOCCOCCn2cc(CNC(=O)c3cc([C@H]4NC[C@@H](O)[C@H]4O)oc3C)nn2)nn1` showed an inhibition [4] of under 50%.

For `C[C@@H]1N[C@@H](c2cn(-c3ccccc3)nn2)[C@H](O)[C@@H]1O`, the inhibition (Cornu aspersum) was “inactive”, the inhibition (Prunus dulcis) was “inactive” and the pKi [7] was 6.07. For the same compound, the inhibition (Oryza sativa) was “inactive”, the pIC50 [8] was 7.72 and the inhibition [2] was “inactive”. The pKi [9] was 5.26, the inhibition (Canavalia ensiformis) was “inactive” and the pKi [10] was 7.18. For the same compound, the inhibition (Saccharomyces cerevisiae) was “inactive”, the pKi [11] was 8.17 and the inhibition (Aspergillus niger) was “inactive”. For the same compound, the inhibition [12] was “inactive”, the inhibition [6] was “inactive” and the pIC50 [13] was 5.38.

In the case of `C[C@@H]1N[C@@H](c2cn(CCOCCOCc3cn(-c4cccc(S(=O)(=O)c5cccc(-n6cc(COCCOCCn7cc([C@@H]8N[C@@H](C)[C@@H](O)[C@H]8O)nn7)nn6)c5)c4)nn3)nn2)[C@H](O)[C@@H]1O`, the inhibition (Bos taurus [14]) was “Active”.

With `C[C@@H]1N[C@@H](c2cn(-c3ccc(S(=O)(=O)c4ccc(N=[N+]=[N-])cc4)cc3)nn2)[C@H](O)[C@@H]1O` the inhibition (Cornu aspersum) was “inactive”, the inhibition (Prunus dulcis) was “inactive” and the pKi [7] was 7.14. For the same compound, the inhibition (Oryza sativa) was “inactive”, the pIC50 [8] was 8.96 and the inhibition [2] was “inactive”. The pKi [9] was 6.24, the inhibition (Canavalia ensiformis) was “inactive” and the pKi [10] was 9.00. The inhibition (Saccharomyces cerevisiae) was “inactive”, the pKi [11] was 9.70 and the inhibition (Aspergillus niger) was “inactive”. For the same compound, the inhibition [12] was “inactive”, the inhibition [6] was “inactive” and the pIC50 [13] was 6.27.

In the case of `C[C@@H]1N[C@@H](c2cn(CCCCCCn3cc([C@@H]4N[C@@H](C)[C@@H](O)[C@H]4O)nn3)nn2)[C@H](O)[C@@H]1O`, the inhibition (Cornu aspersum) was “inactive”, the inhibition (Prunus dulcis) was “inactive” and the pKi [7] was 5.60. For the same compound, the inhibition (Oryza sativa) was “inactive”, the pIC50 [8] was 7.33 and the inhibition [2] was “inactive”. For the same compound, the pKi [9] was 5.15, the inhibition (Canavalia ensiformis) was “inactive” and the pKi [10] was 6.62. The inhibition (Saccharomyces cerevisiae) was “inactive”, the pKi [11] was 7.82 and the inhibition (Aspergillus niger) was “inactive”. The inhibition [12] was “inactive”, the inhibition [6] was “inactive” and the pIC50 [13] was 5.17.

Reference: ChEMBL document CHEMBL4270512, “Harnessing pyrrolidine iminosugars into dimeric structures for the rapid discovery of divalent glycosidase inhibitors” (Eur J Med Chem, 2018)
